Measured values from patent publication US9889093B2, “Application of andrographolide in the preparation of a pharmaceutical for treatment of inflammatory bowel disease, andrographolide enteric targeting micropellet, and method for preparation thereof” (TASLY PHARMACEUTICAL GROUP CO., LTD., priority 2013, dated 2018).
Marks after values point to notes of the source that are not given here.

Legend:
Type in all cases: in vivo
[1] = tested on: TNBS-induced UC rats; experiment: TNBS-induced UC rat model, different administration routes
Excerpt: 4 Dose Designing and Grouping • 4.1 Grouping: quarantine-qualified 84 rats were all used for making UC model. The successful rats were randomly divided into 6 groups: the model control group, the positive control group, the andrographolide low-dose intragastric group, the andrographolide high-dose intragastric group, the andrographolide low-dose intracolonical group and the andrographolide high-dose intracolonical group, 14 rats per group. • 4.2 Dose: the same doses were adopted in both intragastric and intracolonical groups. Animals were not treated in the model control group, the positive control group (mesalazine enteric tablet, 420 mg·kg^−1·d^−1), the andrographolide low-dose intragastric group (30 mg·kg^−1·d^−1), the andrographolide high-dose intragastric group (90 mg·kg^−1·d^−1), the andrographolide low-dose intracolonical group (30 mg·kg^−1·d^−1) and the andrographolide high-dose intracolonical group (90 mg·kg^−1·d^−1).
5. Method • 5.1 Method of making UC model: the rats were anesthetized. 2 mm-diameter latex tube was gently inserted into the position about 8 cm inside the body of the rats through anus, and TNBS in 50% ethanol solution (TNBS 125 mg/kg) was injected into intestinal lumen with an injector by one time, 0.5 ml/rat. The tail of the rat was lifted up for 30 s to make the model making agent (i.e., TNBS) fully infiltrate into the intestinal lumen of the rats. • 5.2 Method of administration: the same dose (1 mL/100 g) was adopted in both intragastric and intracolonical administration, once daily for consecutive 5 days. • 5.3 Method for sampling in experiment: 2 hours after the last administration, the rats were killed by cervical vertebra dislocation and abdomen was opened to separate the colon. Along mesenteric side, the intestinal lumen was cut and rinsed with 4° C. normal saline and spread on a plastic plate. • 5.4 Scoring method for colon gross morphological injury was referred to scoring method for mucosal injury (Bjelkengren G, Aronsen K F, Augustsson N E, etc. Radioprotective effect of local administration of lysine vasopressin and triglycyl lysine vasopressin on the rectal mucosa in rats[J]. Acta Oncol, 1995, 34(4):487-92) to record the mucosal injury score: dotted line blooding and small red spots (<1 mm): 1 score, piece blooding and big red spots (=1 mm): 3 score; and erosion and ulcer: 5 score.
(§1) Data were expressed as mean+standard deviation (x±S). All numerical variables were analyzed with SPSS13.0 software by one-way ANOVA. T-test analysis was used for inter-group comparison.

[2] = tested on: DSS-induced UC mice; experiment: DSS-induced UC mouse model, disease active index; conditions: mesalazine enteric tablet 227.5 mg/kg/d
Excerpt: 4 Dose Designing and Grouping • 4.1 Grouping: quarantine-qualified 84 mice were randomly divided into 6 groups: the model control group, the positive control group, the tested drug low-dose intragastric group, the tested drug high-dose intragastric group, the tested drug low-dose intracolonical group and the tested drug high-dose intracolonical group, 14 mice per group. All animals drank 5% DSS solution daily for consecutive 14 days to establish UC model. Animals were administrated with the drug for treatment on the 2nd day after being given 5% DSS drinking water. • 4.2 Dose: in this study, dose of administration of the mice in all groups was designed on the basis of client's requirements, and the same doses were adopted in both intragastric and intracolonical groups. Animals were not treated in the model control group, the positive control group (mesalazine enteric tablet, 227.5 mg·kg^−1·d^−1), the andrographolide low-dose intragastric group (60 mg·kg^1·d^−1), the andrographolide high-dose intragastric group (180 mg·kg^−1·d^−1), the andrographolide low-dose intracolonical group (60 mg·kg^−1·d^−1) and the andrographolide high-dose intracolonical group (180 mg·kg^−1·d^−1).
5 Method • 5.1 Method of making UC model: all animals drank 5% DSS solution daily for consecutive 14 days. • 5.2 Method of administration: on the 2nd day after modeling, the mice were treated intragastrically or intracolonically with the drug at 1 mL/100 g once a day for consecutive 14 days. • 5.3 Method for sampling in experiment: 2 hours after the last administration, the mice were killed by cervical vertebra dislocation and abdomen was opened to separate the colon. Along mesenteric side, the intestinal lumen was cut and rinsed with 4° C. normal saline and spread on a plastic plate. • 5.4 Method for evaluating disease active index (DAI): the disease active index was assessed at the 7th and 14th day after administration. The method was presented together with the following three parameters: the body weight loss percentages (unchanged BW: 0 score, 1˜5: 1 score, 5˜10: 2 score, 10˜15: 3 score, more than 15: 4 score), stool viscosity (normal stool: 0 score, loosen stool: 2 score, diarrhea: 4 score) and blood stool (normal stool: 0 score, occult blood stool: 2 score and positive blood stool: 4 score). Total score of three parameters was divided by 3 to give the DAI, namely DAI=(BW index score+stool character score+stool blood score)/3.
6 Observation Indices • 6.1 Observation: the general clinical symptoms in the mice were observed daily from the beginning to the end of the experiment, and the stool, mental status and death status were recorded. • 6.2 Body weight: BW was recorded weekly from the beginning to the end of the experiment. • 6.3 Calculation of DAI: DAI was calculated on the 7th and 14th day after administration so as to assess disease activity. • 6.4 The colon mucosal tissue 8˜10 cm away from the anus was sampled, embedded with paraffin and stained with routine HE. Colon mucosal injury was observed by a microscope and histological injury was scored based on the following indices: ulcer inflammatory granuloma, fibrosis and pathological degree.
as §1

[3] = tested on: TNBS-induced colitis mice; experiment: TNBS-induced UC (colitis) mouse model
Method: 5% (w/v) TNBS solution was diluted with double-distilled water and mixed with 50% (v/v) ethanol in equal volume to have 1.5% (w/v) TNBS solution. In the model control group, the mice were anesthetized with 1 wt % pentobarbital solution at a dose of 0.05 ml/10 g body weight. After being anesthetized, the mice were administrated with 1.5% (w/v) TNBS solution at a dose of 0.1 ml/mouse by gently inserting stomach perfusion device to about 3 cm depth via anus and arriving at the colon, and the IBD was induced. In the saline group, the saline was gently injected into the colon at a dose of 0.1 ml/mouse. In the normal control group, 50% (v/v) ethanol was gently injected into the colon at a dose of 0.1 ml mouse.
After one week adaptive feeding, all animals were randomly divided into 5 groups according to body weight, 10 mice in one group: the normal control group, the model control group, the andrographolide low-dose group (20 mg/kg/d), the andrographolide high-dose group (40 mg/kg/d) and the positive control group (Sulfasalazine group, 300 mg/kg/d). Two hours after making model, the animals in each treating groups were orally administrated twice daily with the andrographolide and once daily in the positive control group. After successive administration for 7 days, the abdomen was opened 24 hours after the last administration to observe adhesion degree between the colon and other organs. The colon was separated and weighed.
1. Body weight: after making model, body weight was measured every day to observe the change in the animals.
2. Evaluation of inflammation: the abdomen was opened 24 hours after the last administration to observe adhesion degree between the colon and other organs. Every segment of the colon was taken out and weighed to calculate the percentage of the colon weight to body weight, as the colon index. The formula was presented as follows: Decrease rate of colon specific weight=(colon index of the model control group−colon index of the treatment group)/colon index of the model control group×100%
3. Histopathological examination: a part of the colon was taken to prepare the pathological section, and the standard for score was as follows: • 0 score, no inflammatory symptoms; • 1 score, low-grade inflammation with no structure change; • 2 score, low-grade leukocyte infiltration; • 3 score, high-grade leukocyte infiltration, high vascular density, crypt extension, thickened colon wall and superficial ulcer • 4 score, high-grade leukocyte infiltrating exceeding to mucous layer, crypt extension, decrease of goblet cell, high vascular density, thickened colon wall and extensive ulcer
SPSS11.5 software was used for analysis and the data were expressed as x±S. Variance analysis was used for comparison of significant difference among groups.

[4] = tested on: zebra fish Crohn's disease model; experiment: Zebra fish Crohn's disease model (TNBS), efficacy; conditions: intestinal tissue; prednisolone 10 μM; x ± SE, n = 10
[5] = mesalazine enteric tablet 420 mg/kg, once daily 5 days
[6] = sulfasalazine 300 mg/kg/d, once daily, 7 days

Nc1ccc(O)c(C(=O)O)c1 [Positive control group, mesalazine, reference compound]
Gross morphological injury score [1, 5]: 3.16 ± 1.97
Ulcer ratio [1, 5]: 35.45* %
Formless watery stool symptoms, course ([1]; positive control group 420 mg/kg): most of watery stool symptoms disappeared in the rats on the 5th˜6th days
DAI on the 7th day [2]: 1.31 ± 0.14
DAI on the 14th day [2]: 1.10 ± 0.55

O=C(O)c1cc(/N=N/c2ccc(S(=O)(=O)Nc3ccccn3)cc2)ccc1O [Sulfasalazine, reference compound]
Body weight increase compared with the model control group ([3]; FIG. 1, treated groups): increased faster than that in the model control group
Colon scores ([3]; histopathological score 0-4, sulfasalazine 300 mg/kg/d, 7 days): 2.8*
Colon indices ([3]; percentage of colon weight to body weight, sulfasalazine 300 mg/kg/d, 7 days): 1.75 ± 0.43
Body weight [3, 6]: 19.13 ± 0.99 g
Colon weight [3, 6]: 0.33 ± 0.06 g
Intestinal elasticity compared with the model control group ([3]; treated groups, after 7 days): higher than that in the model control group
Decrease rate of colon specific weight ([3]; vs model control group, sulfasalazine 300 mg/kg/d, 7 days): 47.87%

C[C@]12C=CC(=O)C=C1CC[C@@H]1[C@@H]2[C@@H](O)C[C@@]2(C)[C@H]1CC[C@]2(O)C(=O)CO [prednisolone, reference compound]
Number of Neutrophil [4]: 14 ± 0.60
